Among the data in ChEMBL document CHEMBL3507680, “University of Dundee, Gates Library screen for HepG2 cell viability” are cytotoxicity values, retold here.

The nature of the data set: Human HepG2 cell viability assay in 384 well format. The class given is toxicity, cell-based. Also noted: dose 125 nL, time 70.5 hour; concentration not given beside the values. The note with it: HepG2 cells, read-out: Inhibition.

Take `COc1ccc(C(CC(=O)O)NC(=O)CCc2cccs2)cc1OC` (stereo not given): the cytotoxicity at 70.5 h was determined as 4.75%.

For `CC(NC(=O)NCCn1ccnc1)c1nncn1C` (stereo not given), the cytotoxicity at 70.5 h was 20.5%.

Regarding `N#Cc1cccc(OCc2ccoc2C(=O)N2CCCCCC2)c1`, the cytotoxicity at 70.5 h was -2.71%.

`Cc1csc(C2NC3(CCCC3)C(=O)N2CC2CC2)n1` (stereo not given): the cytotoxicity at 70.5 h stood at 4.39%.

Turning to `Cc1nc(CN2CCCc3cc(OC(F)(F)F)ccc32)oc1C`, the cytotoxicity at 70.5 h amounted to 4.79%.

`COc1ccc2c(c1)CCCN2Cc1nc(C)c(C)o1`: the cytotoxicity at 70.5 h is -4.99%.

As for `CCc1nc(C2NC3(CCCC3)C(=O)N2CC2CC2)cs1` (stereo not given), the cytotoxicity at 70.5 h came to 22.7%.

Take `O=C(c1ccc(CN2CCCCC2)cc1)N1CCCC1c1cccs1` (stereo not given): the cytotoxicity at 70.5 h was -0.233%.

As to `Cc1nc(C2NC3(CCCC3)C(=O)N2CC2CC2)cs1` (stereo not given), the cytotoxicity at 70.5 h was -5.61%.

As to `CCCN(Cc1ccccc1O)S(=O)(=O)N(C)CC`, the cytotoxicity at 70.5 h is -6.19%.

`CCC(C)S(=O)(=O)N(Cc1ccco1)Cc1ccccc1O` (stereo not given): the cytotoxicity at 70.5 h is -10.4%.

`COCCN1CCC(CNC(=O)c2c[nH]c(=O)c(Cl)c2)CC1`: the cytotoxicity at 70.5 h was -10.5%.

Turning to `Cc1noc(CCNC(=O)NCC(=O)NCc2ccccc2)n1`, the cytotoxicity at 70.5 h is -4.83%.

Regarding `NS(=O)(=O)CCN1CCN(c2ccccc2O)CC1`, the cytotoxicity at 70.5 h is -0.407%.

For the compound `CC(=O)Nc1ccc(CNC(C)c2c(C)nn(C)c2C)cc1` (stereo not given), the cytotoxicity at 70.5 h came to 13.1%.

Take `c1cnc(-c2nc(C3CCOC3)no2)cn1` (stereo not given): the cytotoxicity at 70.5 h is -3.44%.

Regarding `CN1CCN(C(=O)c2cccn2C)c2ccccc2C1`, the cytotoxicity at 70.5 h was -6.26%.

Regarding `O=C(NCCOc1ccc(Cl)cn1)NCCc1ccccn1`, the cytotoxicity at 70.5 h was -3.16%.

For `Cc1cc(NC(=O)NCCOc2ccc(Cl)cn2)no1`, the cytotoxicity at 70.5 h is -3.43%.

On to `Cc1csc(C(C)(C)NCc2ncc(-c3ccc(F)cc3)o2)n1`, for which the cytotoxicity at 70.5 h is -4.53%.

For the compound `Cc1nn(C)c(C)c1C(C)NCc1ccsc1` (stereo not given), the cytotoxicity at 70.5 h stood at 3.61%.

For `CSCc1cc(F)ccc1CNC(=O)N1CCC(CO)CC1`, the cytotoxicity at 70.5 h was -0.781%.

In the case of `CN1CCOC(CNCCOc2ccc(C#N)cc2)C1` (stereo not given), the cytotoxicity at 70.5 h was -5.57%.

Consider `COc1ccnc(NC(Cc2ccccc2)C(=O)N(C)C)n1` (stereo not given), for which the cytotoxicity at 70.5 h was 5.68%.

Take `OCCCN1CCCC1c1nc(Cc2ccc(F)cc2)no1` (stereo not given): the cytotoxicity at 70.5 h was 8.04%.

Regarding `Fc1ccc(CNCCn2cccn2)cc1F`, the cytotoxicity at 70.5 h amounted to 16.8%.

Take `O=C(CNC1CCc2ncnn2C1)NCCc1cccs1` (stereo not given): the cytotoxicity at 70.5 h was 2.68%.

Consider `CCc1nc(C)c(C(C)N(C)CCOC)s1` (stereo not given), for which the cytotoxicity at 70.5 h amounted to 10.1%.

As to `O=C(NCCNc1ccccn1)NC1CCCC1`, the cytotoxicity at 70.5 h was -4.33%.

Turning to `CN(Cc1ccc(Cl)cc1)C(=O)Nc1cnn(CC(N)=O)c1`, the cytotoxicity at 70.5 h came out at 8.79%.

For `Cc1ccccc1CC(C)(C)NC(=O)c1cccc(OCC(N)=O)c1`, the cytotoxicity at 70.5 h was -4.51%.

For `Cn1cc(C(=O)NCCC(=O)N2CCCCC2)c(-c2cccnc2)n1`, the cytotoxicity at 70.5 h was found to be 6.62%.

Regarding `COc1cccc(NC(=O)N2CCC(O)(C(F)(F)F)C2)c1` (stereo not given), the cytotoxicity at 70.5 h was -2.52%.

Turning to `O=C(c1ccccc1O)N1CCn2c(nnc2C(F)(F)F)C1`, the cytotoxicity at 70.5 h is -1.13%.

With `Cc1ccccc1CC(C)(C)NC(=O)CCOc1cccc(C(N)=O)c1`, the cytotoxicity at 70.5 h was 4.51%.

For `COc1ccc(CN(C(=O)CCC(C)C)c2cnn(C)c2)c(OC)c1`, the cytotoxicity at 70.5 h was -4.57%.

Turning to `NS(=O)(=O)CCN1CCN(c2cc(F)ccc2F)CC1`, the cytotoxicity at 70.5 h came out at 10.3%.

For `CCOCc1cccc(NCc2c[nH]nc2-c2cccnc2)c1`, the cytotoxicity at 70.5 h was -2.34%.

As for `C=C(C)CN1CCCC1c1nc(Cc2ccc(F)cc2)no1` (stereo not given), the cytotoxicity at 70.5 h was determined as 12.4%.

For the compound `CCc1nc2n(n1)CC(NCCc1cccs1)CC2` (stereo not given), the cytotoxicity at 70.5 h turned out to be 3.55%.

In the case of `CCN1CCCN(S(=O)(=O)c2cc3ccccc3o2)CC1`, the cytotoxicity at 70.5 h is -4.88%.

Regarding `COCCCSc1ccc(NCc2ccc(C)cn2)cc1`, the cytotoxicity at 70.5 h was -6.35%.

For the compound `Cc1csc(CNCC2CCCN(C(=O)OC(C)(C)C)C2)n1` (stereo not given), the cytotoxicity at 70.5 h was -1.06%.

On to `Cc1nnc2n1CCN(CC(=O)NC(C)c1cc3ccccc3o1)C2` (stereo not given), for which the cytotoxicity at 70.5 h stood at 2.01%.

Consider `CCCn1nnnc1CSc1nccn1C`, for which the cytotoxicity at 70.5 h is -7.23%.

Regarding `CN1CCN(C(C)(C)CNC(=O)C2CCCN2S(C)(=O)=O)CC1` (stereo not given), the cytotoxicity at 70.5 h was -6.25%.

Consider `Cc1cc(CN2CCN(C(=O)C3(C#N)CCCCC3)CC2)on1`, for which the cytotoxicity at 70.5 h was -4.13%.

Turning to `N#Cc1ccc(F)c(CNC(=O)NC(CO)c2ccccc2)c1` (stereo not given), the cytotoxicity at 70.5 h is 13.7%.

Turning to `COC(=O)COc1cc(NCc2c(C)noc2C)c(Cl)cc1C`, the cytotoxicity at 70.5 h is -5.04%.

With `Cc1ccc(Br)c(S(=O)(=O)NCc2ccnn2C)c1`, the cytotoxicity at 70.5 h was -5.04%.

On to `N#Cc1ccc(C(=O)O)nc1/C=C/c1cccc(Cl)c1`, for which the cytotoxicity at 70.5 h amounted to 7.88%.

Consider `CCC(CC)(CCO)CNC(=O)c1ccon1`, for which the cytotoxicity at 70.5 h was -8.6%.

As for `O=C(COc1ccccc1)NCC1CC1`, the cytotoxicity at 70.5 h is 9.36%.

Turning to `CCc1nnc(C2Cc3ccccc3CN2Cc2ncc(Cl)n2C)o1` (stereo not given), the cytotoxicity at 70.5 h was -6.23%.

With `Cc1cc(CN2CCc3cncnc3C2)no1`, the cytotoxicity at 70.5 h was -8.98%.

As for `Oc1cccc(C2CN(c3nnc(C4CC4)s3)CCO2)c1` (stereo not given), the cytotoxicity at 70.5 h is -4.99%.

For the compound `CC(C)CCn1ccc(NC(=O)N2CCCC2C(C)(C)O)n1` (stereo not given), the cytotoxicity at 70.5 h is -6.63%.

For `CCc1nc(CN2CCCN(CC(=O)N3CCOCC3)CC2)no1`, the cytotoxicity at 70.5 h came out at 41.7%.

On to `Cc1c(C(C)NC(=O)C2CCCC2)cnn1C` (stereo not given), for which the cytotoxicity at 70.5 h came out at 36.2%.

`Cc1c(C(C)NC(=O)N2CCN(C3CCCC3)CC2)cnn1C` (stereo not given): the cytotoxicity at 70.5 h was 54.3%.

In the case of `CCCNC(=O)CCNC(=O)c1sc2ccc(F)cc2c1C`, the cytotoxicity at 70.5 h amounted to 31.9%.

As for `N#Cc1ccc(CN2C(=O)c3ccccc3CS2(=O)=O)c(F)c1`, the cytotoxicity at 70.5 h stood at 2.45%.

With `CC(=O)NCCCNC(=O)Nc1ccccc1-n1nc(C)cc1C`, the cytotoxicity at 70.5 h came out at 0.874%.

In the case of `Cc1c(C(=O)NCCCC(N)=O)sc2ccc(F)cc12`, the cytotoxicity at 70.5 h worked out at 25.3%.

For the compound `Cc1nc2n(n1)CC(Nc1ccnc(-c3ccccc3)n1)CC2` (stereo not given), the cytotoxicity at 70.5 h is -6.55%.

Take `CCCc1nnc(NC(=O)NC(CCO)c2cccs2)s1` (stereo not given): the cytotoxicity at 70.5 h is -3.88%.

Turning to `Cc1cnc(NC(=O)NC(CCO)c2cccs2)s1` (stereo not given), the cytotoxicity at 70.5 h is -3.17%.

In the case of `CCCn1nc2c(cc1=O)CN(C(C)C(=O)Nc1nccs1)CC2` (stereo not given), the cytotoxicity at 70.5 h was 4.51%.

Consider `CC(C)Cc1nnc(NC(=O)NC(CCO)c2cccs2)s1` (stereo not given), for which the cytotoxicity at 70.5 h is -3.34%.

Turning to `CC(C(=O)Nc1ccnn1C(C)C)N1CCc2nn(C)c(=O)cc2C1` (stereo not given), the cytotoxicity at 70.5 h worked out at 4.22%.

`OCC1(NCc2cnc(-c3cccs3)s2)CCOCC1`: the cytotoxicity at 70.5 h was -6.15%.

As to `CN(C(=O)NCc1nccn1Cc1ccccc1)C1CC1`, the cytotoxicity at 70.5 h was 9.16%.

`OCC1(NCc2cnc(-c3ccsc3)s2)CCOCC1`: the cytotoxicity at 70.5 h was -6.13%.

Consider `COc1ccc(CC(=O)NC2(C#N)CCOCC2)c(Cl)c1`, for which the cytotoxicity at 70.5 h came out at 3.22%.

As for `O=C(NCc1nccn1CCc1ccccc1)NCC1CCC1`, the cytotoxicity at 70.5 h was 2.35%.

For `COc1ccc(C)cc1CC(=O)NC1(C#N)CCOCC1`, the cytotoxicity at 70.5 h worked out at 29.1%.

As to `Cc1cnc(CN2CC=C(c3c[nH]c4ncccc34)CC2)o1`, the cytotoxicity at 70.5 h stood at 5.53%.

`O=C(NCC1(CO)CC1)NC(c1nccs1)C1CC1` (stereo not given): the cytotoxicity at 70.5 h was -3.86%.

As for `Cc1noc(CN(Cc2cccc(C#N)c2)Cc2cccs2)n1`, the cytotoxicity at 70.5 h came to 0.497%.

As to `N#Cc1cccc(OCCN2CCCC2C(=O)N2CCSCC2)c1` (stereo not given), the cytotoxicity at 70.5 h came to 3.62%.

As to `Cc1occc1CNC(=O)C1CCN(C(=O)OC(C)(C)C)C1` (stereo not given), the cytotoxicity at 70.5 h was -0.732%.

In the case of `CC(C(=O)Nc1ccc(Cl)cn1)N1CCc2nn(C)c(=O)cc2C1` (stereo not given), the cytotoxicity at 70.5 h was -2.78%.

`Cc1cnc(C(NC(=O)NCC2(CO)CC2)C2CC2)s1` (stereo not given): the cytotoxicity at 70.5 h is 2.13%.

Turning to `O=C(c1cccc(F)c1Cl)N(CCO)CC1CC1`, the cytotoxicity at 70.5 h was -1.98%.

Turning to `NC(=O)c1ccc(N2CCCCC2)c(NC(=O)c2ccc(F)cc2Cl)c1`, the cytotoxicity at 70.5 h came out at 3.11%.

In the case of `CCNC(=O)C1CCN(Cn2nc(-c3ccccc3)oc2=O)CC1`, the cytotoxicity at 70.5 h was -1.22%.

Take `O=c1oc(-c2ccccc2)nn1CN1CCC(N2CCCCC2)CC1`: the cytotoxicity at 70.5 h was 24.3%.

With `O=C(CCCn1cncn1)NC1(c2ccc(Cl)cc2)CCC1`, the cytotoxicity at 70.5 h is -1.83%.

Take `Cc1ccc(CN(C)C(=O)CN2CCCC2Cn2cncn2)cc1` (stereo not given): the cytotoxicity at 70.5 h is -3.7%.

With `CN(Cc1ccccc1)C(=O)CN1CCCCC1Cn1cncn1` (stereo not given), the cytotoxicity at 70.5 h came to 1.47%.

As to `O=C(NC1CCC(C(=O)N2CCSCC2)CC1)N1CCC1` (stereo not given), the cytotoxicity at 70.5 h is -6.98%.

In the case of `CN(Cc1cnn(C)c1)C(=O)CN1CCCCC1Cn1cncn1` (stereo not given), the cytotoxicity at 70.5 h is -7.41%.

For `CC(C)c1nc(CNC2CCCN(c3cccnn3)C2)no1` (stereo not given), the cytotoxicity at 70.5 h stood at 21%.

For the compound `NC(=O)c1ccc(N2CCCCC2)c(NC(=O)c2cc(F)ccc2F)c1`, the cytotoxicity at 70.5 h was -4.2%.

In the case of `CCNC(=O)Cc1c(C)nc2c(c1C)c(=O)[nH]n2C`, the cytotoxicity at 70.5 h is -5.26%.

Regarding `c1cnnc(N2CCCC(NCc3nc(-c4ccsc4)no3)C2)c1` (stereo not given), the cytotoxicity at 70.5 h is -0.51%.

On to `COC(=O)[C@H](C)NC(=O)Cc1c(C)nc2c(c1C)c(=O)[nH]n2C`, for which the cytotoxicity at 70.5 h was -2.82%.

`c1ccc(-c2noc(CNC3CCCN(c4cccnn4)C3)n2)nc1` (stereo not given): the cytotoxicity at 70.5 h is 0.881%.

For `Cc1cccc(C2(NC(=O)CCCn3cncn3)CCCC2)c1`, the cytotoxicity at 70.5 h is -5.53%.

On to `O=C(CCCn1cncn1)NC1(c2cccc(Br)c2)CC1`, for which the cytotoxicity at 70.5 h was 4.56%.

With `CC(C)(C)OC(=O)N1CCCc2ccc(NCc3ccon3)cc21`, the cytotoxicity at 70.5 h was -4.98%.

For `Cc1c(Br)cccc1C(=O)NCCC1CCCNC1` (stereo not given), the cytotoxicity at 70.5 h is 12%.

For `c1cc2c(cc1C1(CNC3=NCCN3)CCCC1)OCCO2`, the cytotoxicity at 70.5 h was -3.87%.

`Clc1ccc(C2(CNC3=NCCN3)CCCC2)cc1`: the cytotoxicity at 70.5 h was determined as 8.18%.

Regarding `Fc1ccc(C2(CNC3=NCCCN3)CCC2)cc1`, the cytotoxicity at 70.5 h is -0.346%.
